# Assay results published in US20220288156A1, “TREATMENT” (QUEEN MARY UNIVERSITY OF LONDON, priority 2019, published 2022).
# Experiments:
# [1] = Mean arterial blood pressure in AAC model; format: in vivo, mouse; settings: intervention mode; 6 weeks post-AAC surgery
# Method: Blood pressure was recorded in anaesthetised mice via intra-arterial cannulation of a carotid artery 6 weeks post-AAC surgery, using a Microtip pressure catheter (Millar instruments). Mice were placed in a supine position on a pre-warmed heating mat (46° C.), and a midline incision made extending the length of the neck with surgical scissors. The large salivary glands were gently moved laterally, and a single carotid artery was located for cannulation. The carotid artery was blunt dissected to remove visceral fats, and then ligated with surgical suture at its most rostral and caudal ends, leaving a space of roughly 2 mm in between. A small incision was made between the two ties using fine dissection spring-tip scissors, and a microtip pressure catheter was inserted into the artery. The region of the artery housing the catheter was tied in place, and the caudal tie loosened to allow blood flow into the pressure catheter. Mice were allowed to recover for 5 min, or until the blood pressure trace steadied. MABP was then averaged across a 30 s period using MATLAB analysis. All efforts were made to ensure mouse body temperature, and levels of anaesthesia in particular, remained constant between animals.
# [2] = test system: mouse cardiac endothelial cells; experiment: RNA-Seq of cardiac endothelial cells treated with ldCil; format: cell-based
# [3] = test system: AngII-stimulated mouse cardiomyocytes; experiment: RNA-Seq of AngII-stimulated cardiomyocytes treated with ldCil, comparison with human heart data; format: cell-based
# Method: Primary mouse cardiomyocytes were isolated from the whole hearts of 1-3-day old C57/BL6 wild-type mice. Hearts were dissected and removed from the thoracic cavity, mechanically minced with scissors and digested in cardiomyocyte isolation enzyme 1 (200 μl per heart) and cardiomyocyte isolation enzyme 2 (10 μl per heart) (Pierce primary cardiomyocyte isolation kit, Thermo Scientific). Digested hearts were then homogenised by gently pipetting up to 30 times with a 1 ml pipette, and the resulting single cell suspension added to complete DMEM solution (DMEM, 10% FBS, 1% Penicillin Streptomycin stock solution). After combination of all cell suspensions, the total number of viable cells were counted, and plated at approximately 1 million cells per single well of a 6 well plate. The following day, wells were washed with PBS (without calcium and magnesium), and complete cardiomyocyte growth medium added. Complete cardiomyocyte medium thereafter was replaced every other day.
# (§1) Following 5 days culture at 37° C., 5% CO2, primary mouse cardiomyocytes were serum starved for 24 h in a 0.5 FBS-DMEM media. On day 6 cells were washed and refed with complete cardiomyocyte growth medium plus or minus 1 μM angiotensin II (Alfa Aesar), and this was repeated on day 7. In tandem to angiotensin II treatment, cells were either treated with vehicle or low dose Cilengitide (20 nM) (Bachem). On 8-day cardiomyocytes were lysed for RNA analysis.
# Medium was removed and cells were washed 3 times in PBS. 350 μl RLT lysis buffer (Qiagen) (plus 1:100 beta-mercaptoethanol) was added to each well to disrupt and lyse the cells. Cell lysate samples were then combined with an equal volume of 70% ethanol, before RNA was extracted according to the manufacturer's instructions, before being stored at −80° C. until required. For whole hearts, less than 100 mg of tissue was lysed with 700 μl RLT lysis buffer (Qiagen) (supplemented 1:100 beta-mercaptoethanol) in a QIAshredder (Qiagen) for 10 min. Tissues were then processed as above with the RNeasy mini kit.
# RNA-Seq was performed by Barts and the London Genome Centre on the Illumina NextSeq 500 platform, generating on average ˜15-17 million paired-end reads of 76 bp in length per sample. After quality check using FastQC, raw reads were mapped to the mouse genome (mm10, Genome Reference Consortium GRCm38) in the strand-specific mode using HISAT2 (65). Number of uniquely aligned reads (q>10) to the exonic region of each gene were counted using HTSeq (66) based on the GenCode annotation version M16 (Ensembl v91). Only genes that achieved at least one read count per million reads (cpm) in at least four samples (i.e., number of samples per group) were kept. Conditional quantile normalisation (cqn) was then performed accounting for gene length and GC content, and a log2 transformed reads per kilobase of transcript per million mapped reads RPKM expression matrix was subsequently generated. Differential expression analysis was performed using the ‘limma’ R package (67). Gene-set enrichment analysis (GSEA) was performed using the GSEA software (68) to identify dysregulated canonical pathways curated in the Molecular Signatures Database (MSigDB-C2-CP v6.2) (FDR q<0.1). RNA-Seq data have been deposited in Gene Expression Omnibus (GEO) under the accession number GSE127854.
# The GSE57338 microarray dataset of a total of 313 individuals which included 95 ischemic patients, 82 dilated cardiomyopathy patients, and 136 individuals with non-failing hearts, was downloaded from GEO. Differential expression analysis was performed using the ‘limma’ R package comparing ischemic vs non-failing and dilated vs non-failing. GSEA was performed using the GSEA software (PMID:16199517) to identify the dysregulated canonical pathways as described above. The overlap of differentially expressed gene and pathways (p<0.05) was then examined in relation to the mouse cardiomyocyte data. […]
# [4] = test system: AngII-stressed mouse cardiomyocytes; experiment: Western blot of TCA cycle enzymes in AngII-stressed cardiomyocytes; format: cell-based; settings: Western blot densitometry
# Method: as §1
# Cardiomyocytes were prepared and treated as above. At the end of the experiment, cells were lysed with RIPA buffer for 10 min on ice and the cell debris pelleted by centrifugation of the lysate at 9300 g for 10 min at 4° C. Protein concentration was determined from the cell supernatant and 20 μg protein loaded onto 10% gels. Membranes were probed for succinate dehydrogenase (Abcam, ab178423), pyruvate dehydrogenase (Abcam, ab131263), aconitase (Abcam, ab129069) and GAPDH (Millipore, AB2302). Densitometric readings of band intensities were obtained using the JmageJ™ software.
# [5] = test system: pathological angiogenesis; settings: cited from earlier work
# [6] = AngII vs AngII+ldCil, human failing vs non-failing
# [7] = human idiopathic dilated cardiomyopathy vs non-failing
# [8] = human ischemic heart vs non-failing
# [9] = low doses, 50 μg/kg in vivo or 2 nM in vitro
structure (smiles),measurement,setting,value
"CC(C)[C@H]1C(=O)N[C@@H](CCCN=C(N)N)C(=O)NCC(=O)N[C@@H](CC(=O)O)C(=O)N[C@H](Cc2ccccc2)C(=O)N1C [Cilengitide, c(f*VRGD)]",mean arterial blood pressure (MABP),[1],not affected
same,concordantly differentially expressed genes,[2]; 24 h and 48 h ldCil treatment vs control,54 genes
same,"expression of proangiogenic or cardioprotective regulators (Csf2rb, Eln, Nov, CCL7, Mt2, Socs2, Fgf23, Slc30a1, Col6a3, Mt1, Ggt5, Adam8)",[2]; both 24 h and 48 h,differentially upregulated
same,"gene sets involved in mitosis, DNA repair and cell cycle (enrichment analysis)",[2]; both timepoints,significant increases
same,transcriptomic alterations induced by AngII,[3]; 1 μM AngII plus ldCil 20 nM,back to control treated cardiomyocyte levels
same,PI3K and Akt signalling pathways downregulated by AngII,[3]; AngII plus ldCil,fold change restoration of both these pathways are most highly expressed
same,TCA and oxidative stress pathways increased by AngII,[3]; AngII plus ldCil,restored
same,downregulated genes concordant with human failing heart restored to non-failing human heart levels,[3]; [6],13 genes
same,upregulated genes concordant with human failing heart restored to non-failing human heart levels,[3]; [6],8 genes
same,AngII-induced differential expression of pathways (GSEA),"[3]; AngII+ldCil compared to control, FDR q>0.1",no longer significant
same,concordantly downregulated pathways restored to non-failing human heart profiles,[3]; [7],8 pathways
same,concordantly upregulated pathways restored to non-failing human heart profiles,[3]; [7],4 pathways
same,concordant downregulated pathways restored,[3]; [8],5 pathways
same,concordant pathways restored,[3]; [8],6 pathways
same,concordant upregulated pathways restored,[3]; [8],1 pathways
same,pyruvate dehydrogenase protein expression,[4],rescues the elevated expression
same,chemotherapy efficacy in cancer models in vivo,[5]; ldCil with chemotherapy,improve chemotherapy efficacy
same,effect on quiescent vasculature,[5]; [9],no apparent effects
same,pathological angiogenesis,[5]; [9],enhance pathological angiogenesis
